Consider two molecules from patent US8592467B2, “Benzothiazole cyclobutyl amine derivatives” (Abbvie Inc., priority 2005, dated 2013).

Each structure is given as a SMILES string.

For orientation: melting point means the temperature, or range, at which the solid turns liquid. The molecule `O=c1cccnn1-c1ccc2nc([C@H]3C[C@@H](N4CCCCC4)C3)sc2c1` [Example 48B, Cis-2-[2-(3-piperidin-1-ylcyclobutyl)-1,3-benzothiazol-6-yl]pyridazin-3(2H)-one] yielded a melting point of 127 to 128 °C. For `O=c1cccnn1-c1ccc2nc([C@H]3C[C@H](N4CCCCC4)C3)sc2c1` [Example 48A, Trans-2-[2-(3-piperidin-1-ylcyclobutyl)-1,3-benzothiazol-6-yl]pyridazin-3(2H)-one] the value was 139 to 140 °C.
